Experimental data published in publication PMC10882719 (Frontiers in Neuroscience, 2024).
Like-named read-outs stand apart in the source and are kept apart here.

Columns and labels:
Assay type in all cases: cell-based
168 GPCRs [1] = molecular target: T1, 168 GPCRs (Homo sapiens, UniProt O95136)
T1 construct: host or cells: PathHunter cell lines

168 GPCRs [2] = molecular target: T2, 168 GPCRs (Homo sapiens, UniProt O95977)
T2 construct: host or cells: PathHunter cell lines
T2 sequence (O95977 1-384): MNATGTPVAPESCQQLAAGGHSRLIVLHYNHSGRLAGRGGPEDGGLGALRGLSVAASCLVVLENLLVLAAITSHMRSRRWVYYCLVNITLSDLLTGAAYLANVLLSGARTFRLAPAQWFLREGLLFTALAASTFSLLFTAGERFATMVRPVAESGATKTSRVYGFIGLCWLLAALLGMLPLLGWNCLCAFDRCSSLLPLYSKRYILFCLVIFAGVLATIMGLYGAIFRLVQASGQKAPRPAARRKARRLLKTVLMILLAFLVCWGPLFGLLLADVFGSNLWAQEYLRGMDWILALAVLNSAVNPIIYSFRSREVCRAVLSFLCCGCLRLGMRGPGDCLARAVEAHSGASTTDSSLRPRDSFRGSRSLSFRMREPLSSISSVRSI

168 GPCRs [3] = molecular target: T3, 168 GPCRs (Homo sapiens, UniProt P11229)
T3 construct: host or cells: PathHunter cell lines
T3 sequence (P11229 1-460): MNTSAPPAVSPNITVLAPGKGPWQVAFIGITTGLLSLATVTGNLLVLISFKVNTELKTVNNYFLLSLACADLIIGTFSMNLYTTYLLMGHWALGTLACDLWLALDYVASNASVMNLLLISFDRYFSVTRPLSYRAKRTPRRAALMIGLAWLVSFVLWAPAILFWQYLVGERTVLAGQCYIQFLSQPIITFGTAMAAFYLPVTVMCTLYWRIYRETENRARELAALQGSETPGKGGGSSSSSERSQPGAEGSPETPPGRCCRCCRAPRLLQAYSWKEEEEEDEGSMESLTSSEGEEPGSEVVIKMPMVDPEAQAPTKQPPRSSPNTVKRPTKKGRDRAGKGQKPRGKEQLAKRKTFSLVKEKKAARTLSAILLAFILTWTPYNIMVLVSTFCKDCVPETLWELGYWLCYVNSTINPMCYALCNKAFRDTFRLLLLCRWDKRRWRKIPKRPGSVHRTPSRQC

168 GPCRs [4] = molecular target: T4, 168 GPCRs (Homo sapiens, UniProt P25116); conditions: F2R
T4 construct: host or cells: PathHunter cell lines
T4 sequence (P25116 22-425): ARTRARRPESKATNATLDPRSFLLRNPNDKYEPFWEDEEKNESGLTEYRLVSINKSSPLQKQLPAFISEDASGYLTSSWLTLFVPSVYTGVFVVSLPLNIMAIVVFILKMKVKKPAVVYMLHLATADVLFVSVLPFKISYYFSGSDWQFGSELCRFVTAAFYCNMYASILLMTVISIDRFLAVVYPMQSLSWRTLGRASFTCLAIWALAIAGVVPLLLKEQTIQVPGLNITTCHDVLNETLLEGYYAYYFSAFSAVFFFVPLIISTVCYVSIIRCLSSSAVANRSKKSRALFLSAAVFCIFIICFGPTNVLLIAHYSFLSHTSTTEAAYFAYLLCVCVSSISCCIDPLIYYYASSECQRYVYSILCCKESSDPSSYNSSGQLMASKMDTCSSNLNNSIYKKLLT

168 GPCRs [5] = molecular target: T5, 168 GPCRs (Homo sapiens, UniProt P51677)
T5 construct: host or cells: PathHunter cell lines
T5 sequence (P51677 1-355): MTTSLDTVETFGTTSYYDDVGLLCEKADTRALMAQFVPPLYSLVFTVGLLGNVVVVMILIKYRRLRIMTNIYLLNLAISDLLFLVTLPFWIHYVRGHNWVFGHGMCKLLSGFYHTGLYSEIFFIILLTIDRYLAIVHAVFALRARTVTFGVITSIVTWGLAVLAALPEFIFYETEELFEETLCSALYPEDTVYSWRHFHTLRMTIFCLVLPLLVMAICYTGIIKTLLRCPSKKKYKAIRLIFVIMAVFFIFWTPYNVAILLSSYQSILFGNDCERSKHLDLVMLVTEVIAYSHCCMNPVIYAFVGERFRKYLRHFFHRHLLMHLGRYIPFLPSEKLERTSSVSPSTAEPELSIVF

168 GPCRs [6] = molecular target: T6, 168 GPCRs (Homo sapiens, UniProt Q8TCW9); conditions: PROKR1
T6 construct: host or cells: PathHunter cell lines

168 GPCRs [7] = molecular target: T7, 168 GPCRs (Homo sapiens, UniProt Q969F8); conditions: KISS1R
T7 construct: host or cells: PathHunter cell lines
T7 sequence (Q969F8 whole entry): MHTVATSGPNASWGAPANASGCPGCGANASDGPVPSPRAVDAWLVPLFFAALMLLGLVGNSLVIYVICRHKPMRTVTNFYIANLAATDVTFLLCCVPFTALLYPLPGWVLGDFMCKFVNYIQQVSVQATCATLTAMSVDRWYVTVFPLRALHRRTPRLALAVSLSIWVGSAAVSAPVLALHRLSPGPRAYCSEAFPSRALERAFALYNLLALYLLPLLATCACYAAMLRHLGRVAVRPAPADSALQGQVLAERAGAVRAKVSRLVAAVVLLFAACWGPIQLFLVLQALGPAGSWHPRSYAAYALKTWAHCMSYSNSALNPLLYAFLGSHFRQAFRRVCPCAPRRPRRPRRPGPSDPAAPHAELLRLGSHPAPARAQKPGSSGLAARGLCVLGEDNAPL

T6 sequence (Q8TCW9 whole entry): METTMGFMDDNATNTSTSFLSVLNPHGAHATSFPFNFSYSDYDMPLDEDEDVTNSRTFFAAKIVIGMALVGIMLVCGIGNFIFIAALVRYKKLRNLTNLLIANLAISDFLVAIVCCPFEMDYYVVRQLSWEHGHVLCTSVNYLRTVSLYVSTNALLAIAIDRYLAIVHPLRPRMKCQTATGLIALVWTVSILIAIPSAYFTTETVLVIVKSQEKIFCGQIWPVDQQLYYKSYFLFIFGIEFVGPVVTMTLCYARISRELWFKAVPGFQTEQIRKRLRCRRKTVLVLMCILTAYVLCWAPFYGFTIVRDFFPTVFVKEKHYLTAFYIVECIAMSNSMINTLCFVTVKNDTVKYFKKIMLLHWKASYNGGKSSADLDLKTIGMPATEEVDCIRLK
T1 sequence (O95136 whole entry): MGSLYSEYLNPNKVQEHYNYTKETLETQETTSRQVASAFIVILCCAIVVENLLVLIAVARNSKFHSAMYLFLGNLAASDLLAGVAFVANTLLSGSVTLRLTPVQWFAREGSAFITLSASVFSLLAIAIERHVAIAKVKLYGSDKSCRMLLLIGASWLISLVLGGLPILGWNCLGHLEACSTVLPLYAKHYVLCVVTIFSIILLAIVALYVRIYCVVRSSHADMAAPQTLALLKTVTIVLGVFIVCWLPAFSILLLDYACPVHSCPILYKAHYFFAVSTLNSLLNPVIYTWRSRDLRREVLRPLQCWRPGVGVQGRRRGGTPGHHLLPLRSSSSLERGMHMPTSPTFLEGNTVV

| Compound | % Agonist Activity (168 GPCRs [1]; EDG5, 1 uM) | % Antagonist Activity (168 GPCRs [1]; EDG5, 1 uM) | % Agonist Activity (168 GPCRs [1]; EDG5, 10 uM) | % Antagonist Activity (168 GPCRs [1]; EDG5, 10 uM) | % Agonist Activity (168 GPCRs [2]; EDG6, 1 uM) | % Antagonist Activity (168 GPCRs [2]; EDG6, 1 uM) | % Agonist Activity (168 GPCRs [2]; EDG6, 10 uM) | % Antagonist Activity (168 GPCRs [2]; EDG6, 10 uM) | % Agonist Activity (168 GPCRs [3]; CHRM1, 1 uM) | % Antagonist Activity (168 GPCRs [3]; CHRM1, 1 uM) | % Agonist Activity (168 GPCRs [3]; CHRM1, 10 uM) | % Antagonist Activity (168 GPCRs [3]; CHRM1, 10 uM) | % Agonist Activity (168 GPCRs [4]; 1 uM) | % Antagonist Activity (168 GPCRs [4]; 1 uM) | % Agonist Activity (168 GPCRs [4]; 10 uM) | % Antagonist Activity (168 GPCRs [4]; 10 uM) | % Agonist Activity (168 GPCRs [5]; CCR3, 1 uM) | % Antagonist Activity (168 GPCRs [5]; CCR3, 1 uM) | % Agonist Activity (168 GPCRs [5]; CCR3, 10 uM) | % Antagonist Activity (168 GPCRs [5]; CCR3, 10 uM) | also measured |
| --- | --- | --- | --- | --- | --- | --- | --- | --- | --- | --- | --- | --- | --- | --- | --- | --- | --- | --- | --- | --- | --- |
| CNC(C)Cc1ccc2c(c1)OCO2 (centres unmarked) [MDMA, 3,4-Methylenedioxy methamphetamine, reference compound] | -1.1% | -0.5% | -1.5% | 0.6% | 6.3% | 14.1% | 4% | 18% | 0.2% | 12.1% | 0.7% | 0.1% | -0.7% | 1.2% | -1.2% | 5.9% | -1.5% | 1.5% | -1.3% | 9.6% | % Agonist Activity (168 GPCRs [6]; Conc 1 uM): 0.3%; % Antagonist Activity (168 GPCRs [6]; Conc 1 uM): -8.7%; % Agonist Activity (168 GPCRs [6]; Conc 10 uM): 0.7%; % Antagonist Activity (168 GPCRs [6]; Conc 10 uM): 8.5%; % Agonist Activity (168 GPCRs [7]; 1 uM): -4.8%; % Antagonist Activity (168 GPCRs [7]; 1 uM): -13.9%; % Agonist Activity (168 GPCRs [7]; 10 uM): -4.3%; % Antagonist Activity (168 GPCRs [7]; 10 uM): 1.8% |
| CNC(C)C(=O)c1ccc2c(c1)OCO2 (centres unmarked) [methylone] | -4.7% | -3.4% | -3.7% | -6.3% | -1.7% | 13.2% | -0.3% | 7.8% | -9.1% | 15.8% | -8.5% | 2% | -2.5% | -11.6% | 0.2% | -11.4% | -6.7% | -11.8% | -7.6% | -4% | % Agonist Activity (168 GPCRs [6]; Conc 1 uM): -1.3%; % Antagonist Activity (168 GPCRs [6]; Conc 1 uM): 8.7%; % Agonist Activity (168 GPCRs [6]; Conc 10 uM): -2.8%; % Antagonist Activity (168 GPCRs [6]; Conc 10 uM): 3.3%; % Agonist Activity (168 GPCRs [7]; 1 uM): -5.5%; % Antagonist Activity (168 GPCRs [7]; 1 uM): 28.7%; % Agonist Activity (168 GPCRs [7]; 10 uM): -3.7%; % Antagonist Activity (168 GPCRs [7]; 10 uM): 14.5% |
